20 molecules from patent US10640506B2, “Cyclobutyl substituted pyrrolopyridine and pyrrolopyrimidines derivatives as JAK inhibitors” (Incyte Corporation, priority 2010, dated 2020) can be followed below.

Each structure is given as a SMILES string. pIC50: −log10 of the molar value. Counter-ions that a name gives are not always drawn. Like-named read-outs stand apart in the source and are kept apart here.

Assay [1] deals with human JAK1 (a.a. 837-1142) (Homo sapiens, UniProt P23458). In words: In vitro JAK kinase assay (HTRF, phosphorylation of biotinylated peptide), JAK1. In kind it is biochemical. The conditions noted are these: 1 mM ATP. The essentials: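 His-tagged human JAK1 catalytic domain (a.a. 837-1142), baculovirus/insect-cell expressed, phosphorylates a biotinylated peptide for 1 h at room temperature. Reaction stopped with EDTA; product detected by HTRF (SA-APC, Eu-Py20, 40 min binding). IC50 reported as ranges.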
Chain of human JAK1 (a.a. 837-1142) (P23458 849-1154): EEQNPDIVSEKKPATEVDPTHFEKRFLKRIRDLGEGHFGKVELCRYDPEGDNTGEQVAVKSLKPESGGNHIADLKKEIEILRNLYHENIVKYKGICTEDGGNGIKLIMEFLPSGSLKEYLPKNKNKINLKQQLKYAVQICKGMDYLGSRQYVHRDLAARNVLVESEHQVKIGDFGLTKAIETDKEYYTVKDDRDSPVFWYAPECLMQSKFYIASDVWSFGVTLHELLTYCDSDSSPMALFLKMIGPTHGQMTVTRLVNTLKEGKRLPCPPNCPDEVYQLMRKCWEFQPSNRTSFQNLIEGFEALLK

The target in a further assay is T1, JAK2 (a.a. 828-1132) (Homo sapiens, UniProt O60674).
T1 construct: JAK2 (a.a. 828-1132); His tag (N)
T1 sequence (O60674 828-1132): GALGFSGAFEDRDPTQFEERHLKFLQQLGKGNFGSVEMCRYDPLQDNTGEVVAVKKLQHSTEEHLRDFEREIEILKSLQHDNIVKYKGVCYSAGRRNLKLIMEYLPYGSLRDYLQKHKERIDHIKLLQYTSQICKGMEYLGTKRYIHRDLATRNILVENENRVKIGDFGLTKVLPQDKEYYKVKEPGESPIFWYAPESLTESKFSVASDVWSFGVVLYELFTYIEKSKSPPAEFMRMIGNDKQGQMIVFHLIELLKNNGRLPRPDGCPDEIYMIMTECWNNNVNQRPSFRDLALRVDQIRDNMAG
The assay can be described thus: In vitro JAK kinase assay (HTRF, phosphorylation of biotinylated peptide), JAK2. The format is biochemical. The conditions noted are these: 1 mM ATP. The essentials:
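His-tagged catalytic domains of human JAK1 (a.a. 837-1142) and JAK2 (a.a. 828-1132), baculovirus-expressed, phosphorylate a biotinylated peptide for 1 hour at room temperature. Stopped with EDTA; detected by HTRF using SA-APC and Eu-Py20 antibody after 40 min binding; values binned as ranges.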

For `N#CC[C@]1(n2cc(-c3ncnc4[nH]ccc34)cn2)C[C@@H](N2CCN(C(=O)NC3CC3)CC2)C1` [Example 107, 4-{cis-3-(cyanomethyl)-3-[4-(7H-pyrrolo[2,3-d]pyrimidin-4-yl)-1H-pyrazol-1-yl]cyclobutyl}-N-cyclopropylpiperazine-1-carboxamide], the values for the pIC50 (in assay [1] (Table F); on JAK2 (a.a. 828-1132) (Table F)) were 7.60 to 8.00 and less than 7.00, respectively.
Turning to `N#CC[C@]1(n2cc(-c3ncnc4[nH]ccc34)cn2)C[C@@H](N2CCN(C(=O)c3ccc(F)c(F)c3)CC2)C1` [Example 15a, {cis-3-[4-(3,4-difluorobenzoyl)piperazin-1-yl]-1-[4-(7H-pyrrolo[2,3-d]pyrimidin-4-yl)-1H-pyrazol-1-yl]cyclobutyl}acetonitrile], the pIC50 was more than 8.00 in assay [1] (Table A, read-out: JAK1 IC50) and 7.00 to 7.60 on JAK2 (a.a. 828-1132) (Table A, read-out: JAK2 IC50).
Take `N#CC[C@]1(n2cc(-c3ncnc4[nH]ccc34)cn2)C[C@H](N2CCN(C(=O)c3cc(F)cc(C#N)c3)CC2)C1` [Example 12b, 3-[(4-{trans-3-(cyanomethyl)-3-[4-(7H-pyrrolo[2,3-d]pyrimidin-4-yl)-1H-pyrazol-1-yl]cyclobutyl}piperazin-1-yl)carbonyl]-5-fluorobenzonitrile]: the pIC50 in assay [1] (Table B, read-out: JAK1 IC50) is more than 8.00; on JAK2 (a.a. 828-1132) (Table B, read-out: JAK2 IC50), 7.60 to 8.00.
Taken in the same sequence, the figures for `N#CC[C@]1(n2cc(-c3ncnc4[nH]ccc34)cn2)C[C@H](N2CCN(C(=O)c3ccnc(C(F)(F)F)n3)CC2)C1` [Example 7b, [trans-1-[4-(7H-pyrrolo[2,3-d]pyrimidin-4-yl)-1H-pyrazol-1-yl]-3-(4-{[2-(trifluoromethyl)pyrimidin-4-yl]carbonyl}piperazin-1-yl)cyclobutyl]acetonitrile] were more than 8.00 and 7.00 to 7.60.
As to `N#CC[C@]1(n2cc(-c3ncnc4[nH]ccc34)cn2)C[C@H](N2CCN(C(=O)c3cc(C4=NCCN4)cc(C(F)(F)F)n3)CC2)C1` [Example 73, {trans-3-(4-{[4-(4,5-dihydro-1H-imidazol-2-yl)-6-(trifluoromethyl)pyridin-2-yl]carbonyl}piperazin-1-yl)-1-[4-(7H-pyrrolo[2,3-d]pyrimidin-4-yl)-1H-pyrazol-1-yl]cyclobutyl}acetonitrile], the negative-log IC50 (pIC50) in assay [1] (Table F) was more than 8.00; at JAK2 (a.a. 828-1132) (Table F) it was 7.60 to 8.00.
On to `N#CC[C@]1(n2cc(-c3ncnc4[nH]ccc34)cn2)C[C@H](N2CCN(C(=O)c3cncc(F)c3)CC2)C1` [Example 10b, {trans-3-{4-[(5-fluoropyridin-3-yl)carbonyl]piperazin-1-yl}-1-[4-(7H-pyrrolo[2,3-d]pyrimidin-4-yl)-1H-pyrazol-1-yl]cyclobutyl}acetonitrile tris(trifluoroacetate) Salt], for which the pIC50 in assay [1] (Table B, read-out: JAK1 IC50) is more than 8.00; on JAK2 (a.a. 828-1132) (Table B, read-out: JAK2 IC50) it was 7.00 to 7.60.
With `CN(C)Cc1cc(C(=O)N2CCN([C@H]3C[C@](CC#N)(n4cc(-c5ncnc6[nH]ccc56)cn4)C3)CC2)cc(C(F)(F)F)c1` [Example 39, {trans-3-{4-[3-[(dimethylamino)methyl]-5-(trifluoromethyl)benzoyl]piperazin-1-yl}-1-[4-(7H-pyrrolo[2,3-d]pyrimidin-4-yl)-1H-pyrazol-1-yl]cyclobutyl}acetonitrile], the negative logarithm of the IC50 (pIC50) was more than 8.00 in assay [1] (Table B, read-out: JAK1 IC50) and 7.00 to 7.60 at JAK2 (a.a. 828-1132) (Table B, read-out: JAK2 IC50).
In the case of `CC(C)[C@H](C)NC(=O)N1CCN([C@H]2C[C@@](CC#N)(n3cc(-c4ncnc5[nH]ccc45)cn3)C2)CC1` [Example 111, 4-{cis-3-(cyanomethyl)-3-[4-(7H-pyrrolo[2,3-d]pyrimidin-4-yl)-1H-pyrazol-1-yl]cyclobutyl}-N-[(1S)-1,2-dimethylpropyl]piperazine-1-carboxamide], the pIC50 in assay [1] (Table F) was 7.60 to 8.00; on JAK2 (a.a. 828-1132) (Table F), less than 7.00.
On to `N#CC[C@]1(n2cc(-c3ncnc4[nH]ccc34)cn2)C[C@@H](N2CCN(C(=O)c3ccc(C(F)(F)F)cc3F)CC2)C1` [Example 29, {cis-3-{4-[2-fluoro-4-(trifluoromethyl)benzoyl]piperazin-1-yl}-1-[4-(7H-pyrrolo[2,3-d]pyrimidin-4-yl)-1H-pyrazol-1-yl]cyclobutyl}acetonitrile 2.3×(trifluoroacetate) Salt], for which the pIC50 in assay [1] (Table A, read-out: JAK1 IC50) was 7.60 to 8.00; at JAK2 (a.a. 828-1132) (Table A, read-out: JAK2 IC50), 7.00 to 7.60.
`N#CC[C@]1(n2cc(-c3ncnc4[nH]ccc34)cn2)C[C@H](N2CCN(C(=O)c3ccc(C(F)(F)F)cc3F)CC2)C1` [Example 18, {trans-3-{4-[2-fluoro-4-(trifluoromethyl)benzoyl]piperazin-1-yl}-1-[4-(7H-pyrrolo[2,3-d]pyrimidin-4-yl)-1H-pyrazol-1-yl]cyclobutyl}acetonitrile 2.3×(trifluoroacetate) Salt]: the pIC50 in assay [1] (Table B, read-out: JAK1 IC50) is more than 8.00; on JAK2 (a.a. 828-1132) (Table B, read-out: JAK2 IC50), 7.60 to 8.00.
For the molecule `N#CC[C@]1(n2cc(-c3ncnc4[nH]ccc34)cn2)C[C@H](N2CCC(Oc3cc(CO)nc(C(F)(F)F)n3)CC2)C1` [Example 146, {trans-3-(4-{[6-(hydroxymethyl)-2-(trifluoromethyl)pyrimidin-4-yl]oxy}piperidin-1-yl)-1-[4-(7H-pyrrolo[2,3-d]pyrimidin-4-yl)-1H-pyrazol-1-yl]cyclobutyl}acetonitrile], the pIC50 in assay [1] (Table F) was 7.60 to 8.00; against JAK2 (a.a. 828-1132) (Table F), less than 7.00.
Taken in the same sequence, the figures for `CC(C)(O)c1cc(C(=O)N2CCN([C@H]3C[C@](CC#N)(n4cc(-c5ncnc6[nH]ccc56)cn4)C3)CC2)nc(C(F)(F)F)n1` [Example 58, {trans-3-(4-{[6-(1-hydroxy-1-methylethyl)-2-(trifluoromethyl)pyrimidin-4-yl]carbonyl}piperazin-1-yl)-1-[4-(7H-pyrrolo[2,3-d]pyrimidin-4-yl)-1H-pyrazol-1-yl]cyclobutyl}acetonitrile] were more than 8.00 and 7.60 to 8.00.
Consider `N#CC[C@]1(n2cc(-c3ncnc4[nH]ccc34)cn2)C[C@H](N2CCC(Oc3cc(CN4CCC4)nc(C(F)(F)F)n3)CC2)C1` [Example 150, {cis-3-(4-{[6-(azetidin-1-ylmethyl)-2-(trifluoromethyl)pyrimidin-4-yl]oxy}piperidin-1-yl)-1-[4-(7H-pyrrolo[2,3-d]pyrimidin-4-yl)-1H-pyrazol-1-yl]cyclobutyl}acetonitrile], for which the pIC50 was 7.60 to 8.00 in assay [1] (Table F) and less than 7.00 against JAK2 (a.a. 828-1132) (Table F).
`COCc1cc(OC2CCN([C@H]3C[C@](CC#N)(n4cc(-c5ncnc6[nH]ccc56)cn4)C3)CC2)nc(C(F)(F)F)c1` (single isomer, unassigned) [Example 122, {trans-3-(4-{[4-(methoxymethyl)-6-(trifluoromethyl)pyridin-2-yl]oxy}piperidin-1-yl)-1-[4-(7H-pyrrolo[2,3-d]pyrimidin-4-yl)-1H-pyrazol-1-yl]cyclobutyl}acetonitrile]: the pIC50 is more than 8.00 in assay [1] (Table F) and less than 7.00 against JAK2 (a.a. 828-1132) (Table F).
Taken in the same sequence, the figures for `CC(C)(O)c1cc(C(=O)N2CCN([C@H]3C[C@](CC#N)(n4cc(-c5ccnc6[nH]ccc56)cn4)C3)CC2)nc(C(F)(F)F)c1` [Example 163, {trans-3-(4-{[4-(1-hydroxy-1-methylethyl)-6-(trifluoromethyl)pyridin-2-yl]carbonyl}piperazin-1-yl)-1-[4-(1H-pyrrolo[2,3-b]pyridin-4-yl)-1H-pyrazol-1-yl]cyclobutyl}acetonitrile] were more than 8.00 and 7.00 to 7.60.
For `CN(C)Cc1cc(F)cc(C(=O)N2CCN([C@H]3C[C@](CC#N)(n4cc(-c5ncnc6[nH]ccc56)cn4)C3)CC2)c1` [Example 33, {trans-3-(4-{3-[(dimethylamino)methyl]-5-fluorobenzoyl}piperazin-1-yl)-1-[4-(7H-pyrrolo[2,3-d]pyrimidin-4-yl)-1H-pyrazol-1-yl]cyclobutyl}acetonitrile], the pIC50 in assay [1] (Table B, read-out: JAK1 IC50) was more than 8.00; on JAK2 (a.a. 828-1132) (Table B, read-out: JAK2 IC50) it was more than 8.00.
For `N#CC[C@]1(n2cc(-c3ncnc4[nH]ccc34)cn2)C[C@@H](N2CCN(C(=O)c3cc(F)cc(F)c3)CC2)C1` [Example 8a, {cis-3-[4-(3,5-difluorobenzoyl)piperazin-1-yl]-1-[4-(7H-pyrrolo[2,3-d]pyrimidin-4-yl)-1H-pyrazol-1-yl]cyclobutyl}acetonitrile], the pIC50 in assay [1] (Table A, read-out: JAK1 IC50) was more than 8.00; at JAK2 (a.a. 828-1132) (Table A, read-out: JAK2 IC50), 7.00 to 7.60.
On to `N#CC[C@]1(n2cc(-c3ncnc4[nH]ccc34)cn2)C[C@@H](N2CCC(Oc3cc(CO)cc(C(F)(F)F)n3)CC2)C1` (single isomer, unassigned) [Example 124, {cis-3-(4-{[4-(hydroxymethyl)-6-(trifluoromethyl)pyridin-2-yl]oxy}piperidin-1-yl)-1-[4-(7H-pyrrolo[2,3-d]pyrimidin-4-yl)-1H-pyrazol-1-yl]cyclobutyl}acetonitrile], for which the pIC50 was 7.00 to 7.60 in assay [1] (Table F) and less than 7.00 against JAK2 (a.a. 828-1132) (Table F).
On to `N#CC[C@]1(n2cc(-c3ncnc4[nH]ccc34)cn2)C[C@H](N2CCN(C(=O)N3CCC[C@@H]3C(F)(F)F)CC2)C1` [Example 116, [trans-1-[4-(7H-pyrrolo[2,3-d]pyrimidin-4-yl)-1H-pyrazol-1-yl]-3-(4-{[(2R)-2-(trifluoromethyl)pyrrolidin-1-yl]carbonyl}piperazin-1-yl)cyclobutyl]acetonitrile], for which the values for the pIC50 (in assay [1] (Table F); against JAK2 (a.a. 828-1132) (Table F)) were 7.00 to 7.60 and less than 7.00, respectively.
Regarding `C[C@H]1CCCN1C(=O)N1CCN([C@H]2C[C@@](CC#N)(n3cc(-c4ncnc5[nH]ccc45)cn3)C2)CC1` [Example 4a, {cis-3-(4-{[(2S)-2-methylpyrrolidin-1-yl]carbonyl}piperazin-1-yl)-1-[4-(7H-pyrrolo[2,3-d]pyrimidin-4-yl)-1H-pyrazol-1-yl]cyclobutyl}acetonitrile], the pIC50 is 7.00 to 7.60 in assay [1] (Table A, read-out: JAK1 IC50) and less than 7.00 on JAK2 (a.a. 828-1132) (Table A, read-out: JAK2 IC50).
